Measured values published in ChEMBL document CHEMBL1177796, “Efficient synthesis of galactosylceramide analogues for iNKT cell stimulation” (Bioorg Med Chem Lett, 2010).
Calls of active or inactive are those of the source. The calls are words filed in the database; no cut-off is given here.

System: iNKT
Assay: Stimulation of human iNKT cell proliferation
Type: functional, cell-based

SMILES: CCCCCCCCCCCCCCCCCCCCCCCCCC(=O)N[C@@H](/C=N/O[C@H]1O[C@H](CO)[C@H](O)[C@H](O)[C@H]1O)[C@H](O)[C@H](O)CCCCCCCCCCCCCC
- Activity: Active

SMILES: CCCCCCCCCCCCCCCCCCCCCCCCCC(=O)N[C@@H](/C=N/O[C@@H]1O[C@H](CO)[C@H](O)[C@H](O)[C@H]1O)[C@H](O)[C@H](O)CCCCCCCCCCCCCC
- Activity: Active
